In ChEMBL document CHEMBL3045746, “Efficacy of Lawsonia inermis leaves extract and its phenolic compounds against olive knot and crown gall diseases” (2013):
Converted amounts (≈) assume the structure as drawn.

Tested on: Agrobacterium tumefaciens
Assay: Antibacterial activity against Agrobacterium tumefaciens str. B6 assessed as growth inhibition after 48 hr by INT staining
Assay type: functional
Details: str. B6, 48 h

MIC: 30 µg/mL (≈ 86.6 µM)
Compound: CC(=O)c1c(O)cc(O)c(O)c1O[C@@H]1O[C@H](CO)[C@@H](O)[C@H](O)[C@H]1O [LALIOSIDE]
